The record followed here is US20250170248A1, “SMARCA DEGRADERS AND USES THEREOF” (Kymera Therapeutics, Inc., priority 2021, published 2025).

Molecules are shown by their SMILES. Where only a bound is given, the exact number is not on record here.

One assay addresses T1, SMARCA4 (Homo sapiens, UniProt P51532).
T1 construct: SMARCA2/SMARCA4 protein degradation selectivity in MV4-11 cells; endogenous in cells; host or cells: MV4-11
Kind of assay: SMARCA4 Western blot degradation in MV4-11 cells. The format is cell-based. Conditions: for Dmax: MV4-11, MV4-11 cells, read-out: SMARCA4 MSD MV411 degradation 24 h: average Dmax %; for Dmax / DC50: 24 h; for DC50: read-out: SMARCA4 MSD MV411 degradation 24 h: Mean external-Abs DC50. The procedure:
Example 11. SMARCA2 and SMARCA4 Western Blot MV4-11 Degradation
Cells were seeded into 6-well plates (MV4-11:4×10^6 cells/well/1 ml) and 1 ml of 2× compound solution was added into the well to make the final concentration and the plates were mixed well and incubated for 24 hours (No cytotoxicity was observed). The cell were collected with media and spun at 3000 rpm for 5 minutes. The supernatant was aspirated and the well and the cells were washed with cold PBS once and combined for centrifugation again; the supernatant aspirated again. 200 uL pre-chilled RIPA lysis buffer (Boston BioProducts BP-115D) with protease/phosphatase inhibitor (Roche 05892791001/Roche 04906837001) was directly added into the tube to lyze the cells for 20 minutes on ice. The cell lysate were collected into EP tubes and spun at 13000 rpm for 20 minutes and 72 uL supernatant was transferred to a fresh EP tube containing 18 μL of 5× loading buffer (Beyotime Bio P0015) to make the loading samples. The samples were heated to 100° C. for 10 minutes and cooled to RT and microcentrifuged. 20 μL of samples were loaded onto SDS-PAGE gel (Novex, WG1402BOX) and the gel was run at 80 V for 20 minutes and 120 V for 1.5 hours. The samples were electrotransfer to a NC membrane using wet-transfer method with 250 mA for 2.5 hours. The membrane was blocked with LICOR blocking buffer (LI COR,927-50000) for 1 hour. The membrane was washed three times with TBST(CST #9997S), 5 minutes each. Incubation was performed with primary antibody prepared in blocking buffer with 0.1% Tween-20 (Solarbio, P8220) at 4° C. overnight (Anti-SMARCA2/BRM antibody (ab15597) 1:500; Anti-BRG1 antibody [EPR3912](ab108318) 1:1000; Rabbit anti-Bafl80 antibody [EPR15860](Abcam,ab196022) 1:1000; mouse anti-beta-Actin (8H10D10) (CST #3700) 1:10000). The membrane was washed three times with TBST, 5 minutes each. Incubation with secondary antibody was performed for 1 hour at RT (anti-rabbit IgG (Licor,926-32211) 1:5000; anti-mouse IgG (LI-COR, 926-68070) 1:5000). The membrane was washed three times with 5 minutes each and lastly the LiCOR was read.
The letter codes for SMARCA2/4 degradation potency (DC50) include: A (<1 nM), B (1-10 nM), C (>10-100 nM), and D (>100 nM). The letter codes for the percentage of SMARCA2/4 degradation after 24 hours (Dmax %) include: A (>90% degradation), B (>70-90% degradation), C (50-70% degradation), and D (<50% degradation). The letter codes of SMARCA2/4 selectivity include: A (>500 fold), B (>100-500 fold), C (10-100 fold), and D (<10 fold). Table 8. SMARCA2/4 Selectivity Results
A general note: Immunoblotting shows a protein as a band on a membrane.

The next assay concerns the target SMARCA2 (Homo sapiens, UniProt P51531). The experiment in a line: SMARCA2 Western blot degradation in MV4-11 cells. The class given is cell-based. Conditions: for Dmax: MV4-11, MV4-11 cells, read-out: SMARCA2 MSD MV411 degradation 24 h: average Dmax %; for DC50: read-out: SMARCA2 MSD MV411 degradation 24 h: Mean external-Abs DC50; for Selectivity in MV411: SMARCA2/4 selectivity. Further details: SMARCA2/SMARCA4 protein degradation selectivity in MV4-11 cells; endogenous in cells; host or cells: MV4-11.

T1 sequence (P51532 whole entry): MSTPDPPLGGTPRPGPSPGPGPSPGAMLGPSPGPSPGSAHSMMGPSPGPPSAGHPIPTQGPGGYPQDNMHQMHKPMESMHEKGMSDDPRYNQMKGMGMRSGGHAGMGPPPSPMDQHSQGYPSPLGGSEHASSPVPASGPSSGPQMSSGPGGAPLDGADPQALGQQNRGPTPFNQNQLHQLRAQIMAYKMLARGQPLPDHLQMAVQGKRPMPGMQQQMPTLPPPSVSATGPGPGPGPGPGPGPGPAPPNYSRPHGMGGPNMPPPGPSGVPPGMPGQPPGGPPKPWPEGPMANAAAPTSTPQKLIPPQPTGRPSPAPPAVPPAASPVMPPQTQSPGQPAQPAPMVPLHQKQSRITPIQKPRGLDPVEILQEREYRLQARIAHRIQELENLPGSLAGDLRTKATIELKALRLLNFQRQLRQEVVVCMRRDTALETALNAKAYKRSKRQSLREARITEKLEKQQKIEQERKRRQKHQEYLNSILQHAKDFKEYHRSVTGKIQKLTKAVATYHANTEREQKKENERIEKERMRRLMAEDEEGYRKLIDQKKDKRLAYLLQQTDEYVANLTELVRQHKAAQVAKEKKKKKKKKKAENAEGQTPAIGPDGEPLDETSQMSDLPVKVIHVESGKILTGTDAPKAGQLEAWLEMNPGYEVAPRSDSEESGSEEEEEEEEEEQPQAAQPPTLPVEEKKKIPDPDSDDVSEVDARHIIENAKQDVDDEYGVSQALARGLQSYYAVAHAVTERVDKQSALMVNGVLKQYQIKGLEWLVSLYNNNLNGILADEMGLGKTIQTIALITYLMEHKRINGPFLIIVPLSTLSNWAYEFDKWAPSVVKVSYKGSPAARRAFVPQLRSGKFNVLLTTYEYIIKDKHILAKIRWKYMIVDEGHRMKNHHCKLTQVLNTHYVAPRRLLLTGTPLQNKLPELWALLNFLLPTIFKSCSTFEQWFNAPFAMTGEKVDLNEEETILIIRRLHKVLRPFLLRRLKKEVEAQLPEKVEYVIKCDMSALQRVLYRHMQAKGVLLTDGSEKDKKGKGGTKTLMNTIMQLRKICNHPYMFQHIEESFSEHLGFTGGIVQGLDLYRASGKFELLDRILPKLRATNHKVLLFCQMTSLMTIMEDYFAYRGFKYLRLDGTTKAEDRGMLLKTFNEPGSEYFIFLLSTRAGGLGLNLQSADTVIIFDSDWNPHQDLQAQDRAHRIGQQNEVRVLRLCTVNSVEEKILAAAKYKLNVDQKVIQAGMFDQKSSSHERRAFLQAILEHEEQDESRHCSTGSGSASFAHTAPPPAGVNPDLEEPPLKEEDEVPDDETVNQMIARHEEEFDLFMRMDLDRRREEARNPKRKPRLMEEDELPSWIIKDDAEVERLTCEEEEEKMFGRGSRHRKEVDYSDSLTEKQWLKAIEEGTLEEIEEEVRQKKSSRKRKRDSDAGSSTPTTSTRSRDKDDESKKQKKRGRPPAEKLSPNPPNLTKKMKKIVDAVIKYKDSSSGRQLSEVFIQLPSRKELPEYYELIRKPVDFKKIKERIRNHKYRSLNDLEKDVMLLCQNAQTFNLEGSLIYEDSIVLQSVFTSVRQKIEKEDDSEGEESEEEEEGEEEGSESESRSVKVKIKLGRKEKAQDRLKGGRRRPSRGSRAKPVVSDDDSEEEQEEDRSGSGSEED
SMARCA2, sequence (P51531 whole entry): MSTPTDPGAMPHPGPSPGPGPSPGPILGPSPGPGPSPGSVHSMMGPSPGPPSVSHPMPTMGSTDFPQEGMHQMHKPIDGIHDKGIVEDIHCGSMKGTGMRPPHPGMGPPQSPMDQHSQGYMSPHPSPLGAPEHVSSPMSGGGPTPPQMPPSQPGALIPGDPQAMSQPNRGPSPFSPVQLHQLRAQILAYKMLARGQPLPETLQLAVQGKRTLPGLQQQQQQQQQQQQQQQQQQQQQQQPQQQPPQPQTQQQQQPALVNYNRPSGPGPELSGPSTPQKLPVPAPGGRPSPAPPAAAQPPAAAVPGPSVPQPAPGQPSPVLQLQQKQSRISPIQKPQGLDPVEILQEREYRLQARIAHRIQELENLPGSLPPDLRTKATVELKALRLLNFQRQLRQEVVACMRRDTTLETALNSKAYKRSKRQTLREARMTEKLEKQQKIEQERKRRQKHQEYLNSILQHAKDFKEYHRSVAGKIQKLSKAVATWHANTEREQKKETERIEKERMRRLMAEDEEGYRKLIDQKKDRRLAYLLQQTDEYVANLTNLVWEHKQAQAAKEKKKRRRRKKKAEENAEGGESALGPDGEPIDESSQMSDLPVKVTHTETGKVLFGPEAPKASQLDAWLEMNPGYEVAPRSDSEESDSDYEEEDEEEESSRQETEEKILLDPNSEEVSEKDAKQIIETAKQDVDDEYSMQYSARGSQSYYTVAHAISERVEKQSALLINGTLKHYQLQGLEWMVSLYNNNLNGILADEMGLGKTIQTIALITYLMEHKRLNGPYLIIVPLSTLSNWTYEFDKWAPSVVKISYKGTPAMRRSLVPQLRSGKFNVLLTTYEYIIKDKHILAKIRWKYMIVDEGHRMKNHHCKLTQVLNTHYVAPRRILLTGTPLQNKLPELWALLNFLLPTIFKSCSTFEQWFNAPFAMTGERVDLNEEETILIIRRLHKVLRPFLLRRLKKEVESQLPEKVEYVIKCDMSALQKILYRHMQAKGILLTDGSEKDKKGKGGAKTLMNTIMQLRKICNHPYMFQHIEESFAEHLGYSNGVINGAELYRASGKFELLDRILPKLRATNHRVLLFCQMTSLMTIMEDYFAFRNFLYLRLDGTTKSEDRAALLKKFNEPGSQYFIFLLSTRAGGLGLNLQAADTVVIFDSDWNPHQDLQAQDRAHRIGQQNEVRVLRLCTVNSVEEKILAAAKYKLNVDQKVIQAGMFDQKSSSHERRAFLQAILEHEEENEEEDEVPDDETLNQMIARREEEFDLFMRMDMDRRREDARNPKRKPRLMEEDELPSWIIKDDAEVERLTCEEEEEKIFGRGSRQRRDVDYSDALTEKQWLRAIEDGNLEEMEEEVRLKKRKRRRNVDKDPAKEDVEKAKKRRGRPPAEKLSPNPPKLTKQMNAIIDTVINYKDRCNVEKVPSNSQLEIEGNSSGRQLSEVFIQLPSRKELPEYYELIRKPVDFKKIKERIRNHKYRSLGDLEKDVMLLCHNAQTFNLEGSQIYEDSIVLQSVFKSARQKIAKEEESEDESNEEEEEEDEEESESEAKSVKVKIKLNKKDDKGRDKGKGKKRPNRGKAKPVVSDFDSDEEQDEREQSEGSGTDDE

As for `Cc1ncsc1-c1ccc(CNC(=O)[C@@H]2C[C@@H](O)CN2C(=O)[C@@H](c2cc(N3CC4(CC(N5CCC(c6cnc(N7CCN8c9cc(-c%10ccccc%10O)nnc9NC[C@H]8C7)nc6)CC5)C4)C3)no2)C(C)C)cc1` (single isomer, unassigned) [I-55], the greatest degradation seen (Dmax) at SMARCA4 and at SMARCA2 (24 h) was > 90% each time. The DC50 on SMARCA4 (MV4-11 cells) was < 1 nM; at SMARCA2 (MV4-11 cells, 24 h) it was < 1 nM. Besides, the “Selectivity in MV411” value on SMARCA2 (MV4-11 cells) is listed as “D (D (<10 fold))”.
Take `Cc1ncsc1-c1ccc(CNC(=O)[C@@H]2C[C@@H](O)CN2C(=O)[C@@H](NC(=O)N2CCC3(CC2)CC(N2CCC(c4cnc(N5CCN6c7cc(-c8ccccc8O)nnc7NC[C@H]6C5)nc4)CC2)C3)C(C)(C)C)cc1` [I-67]: the Dmax on SMARCA4 and on SMARCA2 (24 h) was < 50% throughout. The DC50 is > 100 nM at SMARCA4 (MV4-11 cells) and > 100 nM at SMARCA2 (MV4-11 cells, 24 h). The “Selectivity in MV411” value at SMARCA2 (MV4-11 cells) is recorded as “C (C (10-100 fold))”.
For the compound `C#Cc1ccc(CNC(=O)[C@@H]2C[C@@H](O)CN2C(=O)[C@@H](NC(=O)[C@H]2CCC3(CC2)C[C@H](N2CCC(c4cnc(N5CCN6c7cc(-c8ccccc8O)nnc7NC[C@H]6C5)nc4)CC2)C3)C(C)(C)C)cc1` (single isomer, unassigned) [I-25], the Dmax on SMARCA4 and on SMARCA2 (24 h) was 70 to 90% throughout. In addition, the DC50 on SMARCA4 (MV4-11 cells) was 10 to 100 nM; at SMARCA2 (MV4-11 cells, 24 h) it was < 1 nM. Moreover, at SMARCA2 (MV4-11 cells), the “Selectivity in MV411” value was “C (C (10-100 fold))”.
With `C#Cc1ccc(CNC(=O)[C@@H]2C[C@@H](O)CN2C(=O)[C@@H](NC(=O)[C@H]2CC[C@@H](c3ccc(-c4cnc(N5CCN6c7cc(-c8ccccc8O)nnc7NC[C@H]6C5)nc4)cc3)CC2)C(C)(C)C)cc1` [I-24], the Dmax on SMARCA4 and on SMARCA2 (24 h) was > 90% throughout. In addition, the 50% degradation concentration (DC50) at SMARCA4 (MV4-11 cells) is 1 to 10 nM; on SMARCA2 (MV4-11 cells, 24 h) it was < 1 nM. The “Selectivity in MV411” value on SMARCA2 (MV4-11 cells) was “D (D (<10 fold))”.
For `Cc1ncsc1-c1ccc(CNC(=O)[C@@H]2C[C@@H](O)CN2C(=O)[C@@H](NC(=O)C2(F)CC2)C(C)(C)C)c(OC2CCN(Cc3cnc(N4CCc5[nH]c6nnc(-c7ccccc7O)cc6c5[C@@H]4C)nc3)CC2)c1` (single isomer, unassigned) [I-43], the greatest degradation seen (Dmax) at SMARCA4 and on SMARCA2 (24 h) was < 50% each time. Moreover, the DC50 was > 100 nM on SMARCA4 (MV4-11 cells) and > 100 nM at SMARCA2 (MV4-11 cells, 24 h). Also, the “Selectivity in MV411” value at SMARCA2 (MV4-11 cells) is reported as “C (C (10-100 fold))”.
As to `Cc1ncsc1-c1ccc(CNC(=O)[C@@H]2C[C@@H](O)CN2C(=O)[C@@H](NC(=O)C2(F)CC2)C(C)(C)C)c(OC2CN(CCN3CCC(c4cnc(N5CCc6[nH]c7nnc(-c8ccccc8O)cc7c6C5C)nc4)CC3)C2)c1` (some centres unmarked) [I-44], the Dmax at SMARCA4 and at SMARCA2 (24 h) was 70 to 90% throughout. Besides, the 50% degradation concentration (DC50) on SMARCA4 (MV4-11 cells) is > 100 nM; on SMARCA2 (MV4-11 cells, 24 h) it was 10 to 100 nM. Also, the “Selectivity in MV411” value at SMARCA2 (MV4-11 cells) is recorded as “D (D (<10 fold))”.
In the case of `CC(C)C(C(=O)N1C[C@H](O)C[C@H]1C(=O)NCc1ccc(C#N)cc1)c1cc(N2CC3(CC(N4CCC(c5cnc(N6CCN7c8cc(-c9ccccc9O)nnc8NC[C@H]7C6)nc5)CC4)C3)C2)no1` (some centres unmarked) [I-20], the Dmax on SMARCA4 and at SMARCA2 (24 h) was < 50% throughout. Besides, the half-maximal degradation concentration (DC50) is > 100 nM at SMARCA4 (MV4-11 cells) and > 100 nM on SMARCA2 (MV4-11 cells, 24 h). Also, the “Selectivity in MV411” value on SMARCA2 (MV4-11 cells) is “C (C (10-100 fold))”.
As for `C#Cc1ccc(CNC(=O)[C@@H]2C[C@@H](O)CN2C(=O)[C@@H](NC(=O)[C@H]2CC[C@H](c3ccc(-c4cnc(N5CCN6c7cc(-c8ccccc8O)nnc7NC[C@H]6C5)nc4)cc3)CC2)C(C)(C)C)cc1` [I-23], the values for the Dmax on SMARCA4 and on SMARCA2 (24 h) were < 50% and 70 to 90%, respectively. Further, the DC50 was > 100 nM on SMARCA4 (MV4-11 cells) and 10 to 100 nM at SMARCA2 (MV4-11 cells, 24 h). Also, at SMARCA2 (MV4-11 cells), the “Selectivity in MV411” value is “C (C (10-100 fold))”.
For `CC(C)C(C(=O)N1C[C@H](O)C[C@H]1C(=O)NCc1ccc(Cl)cc1)c1cc(N2CC3(CC(N4CCC(c5cnc(N6CCN7c8cc(-c9ccccc9O)nnc8NC[C@H]7C6)nc5)CC4)C3)C2)no1` (some centres unmarked) [I-17], in that order: < 50%, < 50%, > 100 nM, > 100 nM and “C (C (10-100 fold))”.
For `Cc1ncsc1-c1ccc(CNC(=O)[C@@H]2C[C@@H](O)CN2C(=O)[C@@H](NC(=O)[C@H]2CCC3(CC2)C[C@H](N2CCC(c4cnc(N5CCN6c7cc(-c8ccccc8O)nnc7NC[C@H]6C5)nc4)CC2)C3)C(C)(C)C)cc1` (single isomer, unassigned) [I-70], in that order: < 50%, 70 to 90%, > 100 nM, 1 to 10 nM and “A (A (>500 fold))”.
The like results for `Cc1ncsc1-c1ccc(CNC(=O)[C@@H]2C[C@@H](O)CN2C(=O)[C@@H](NC(=O)C2(F)CC2)C(C)(C)C)c(OC2CCN(Cc3cnc(N4CCc5[nH]c6nnc(-c7ccccc7O)cc6c5[C@H]4C)nc3)CC2)c1` (single isomer, unassigned) [I-42] were, in that order, 70 to 90%, 50 to 70%, > 100 nM, 10 to 100 nM and “C (C (10-100 fold))”.
Take `Cc1ncsc1-c1ccc(CNC(=O)[C@@H]2C[C@@H](O)CN2C(=O)[C@@H](NC(=O)C2(F)CC2)C(C)(C)C)c(OCCCCN2CCN(c3cnc(N4CCN5c6cc(-c7ccccc7O)nnc6NC[C@H]5C4)nc3)CC2)c1` (single isomer, unassigned) [I-45]: the maximal degradation (Dmax) at SMARCA4 and on SMARCA2 (24 h) was > 90% each time. Further, the DC50 at SMARCA4 (MV4-11 cells) is 1 to 10 nM; at SMARCA2 (MV4-11 cells, 24 h), < 1 nM. The “Selectivity in MV411” value on SMARCA2 (MV4-11 cells) is listed as “D (D (<10 fold))”.
With `C#Cc1ccc([C@H](C)NC(=O)[C@@H]2C[C@@H](O)CN2C(=O)[C@@H](NC(=O)[C@H]2CCC3(CC2)C[C@H](N2CCC(c4cnc(N5CCN6c7cc(-c8ccccc8O)nnc7NC[C@H]6C5)nc4)CC2)C3)C(C)(C)C)cc1` (single isomer, unassigned) [I-57], on SMARCA4 (MV4-11 cells), the “SMARCA4 MSD MV411 degradation 24 h: average Dmax %” value is listed as “D (D (<50% degradation))” and the 50% degradation concentration (DC50) is > 100 nM. On SMARCA2 (MV4-11 cells, 24 h), the “SMARCA2 MSD MV411 degradation 24 h: average Dmax %” value is “B (B (>70-90% degradation))” and the DC50 was 1 to 10 nM. The “Selectivity in MV411” value on SMARCA2 (MV4-11 cells) was “B (B (>100-500 fold))”.
Regarding `Cc1ncsc1-c1ccc(CNC(=O)[C@@H]2C[C@@H](O)CN2C(=O)[C@@H](NC(=O)[C@H]2CC3(CC[C@H](N4CCC(c5cnc(N6CCN7c8cc(-c9ccccc9O)nnc8NC[C@H]7C6)nc5)CC4)CC3)C2)C(C)(C)C)cc1` (single isomer, unassigned) [I-65], the Dmax at SMARCA4 is 70 to 90%; at SMARCA2 (24 h), > 90%. Further, the 50% degradation concentration (DC50) lay within 10 to 100 nM on SMARCA4 (MV4-11 cells) and 1 to 10 nM on SMARCA2 (MV4-11 cells, 24 h). For the same compound, the “Selectivity in MV411” value on SMARCA2 (MV4-11 cells) is given as “C (C (10-100 fold))”.
The like results for `Cc1ncsc1-c1ccc(CNC(=O)[C@@H]2C[C@@H](O)CN2C(=O)[C@@H](NC(=O)N2CC3(CCC(N4CCC(c5cnc(N6CCN7c8cc(-c9ccccc9O)nnc8NC[C@H]7C6)nc5)CC4)CC3)C2)C(C)(C)C)cc1` [I-69] were, in that order, > 90%, > 90%, 1 to 10 nM, < 1 nM and “D (D (<10 fold))”.
The like results for `Cc1ncsc1-c1ccc(CNC(=O)[C@@H]2C[C@@H](O)CN2C(=O)[C@@H](NC(=O)C2(F)CC2)C(C)(C)C)c(OCCCCN2CCC(c3ccnc(N4CCN5c6cc(-c7ccccc7O)nnc6NC[C@H]5C4)n3)CC2)c1` (single isomer, unassigned) [I-46] were, in that order, > 90%, > 90%, 1 to 10 nM, < 1 nM and “D (D (<10 fold))”.

As a reminder, the Dmax is the greatest extent of degradation seen. In general, DC50 refers to the concentration at which degradation of the target reaches its halfway point.
